Reference: patent US8431596B2 (Cancer Research Technology Limited, priority 2007, dated 2013)
pIC50: −log10 of the molar value.

Molecular target: T1, AXL (human catalytic domain) (Homo sapiens, UniProt P30530)
T1 construct: purchased Upstate Ltd. 14-512
T1 sequence (P30530 473-894): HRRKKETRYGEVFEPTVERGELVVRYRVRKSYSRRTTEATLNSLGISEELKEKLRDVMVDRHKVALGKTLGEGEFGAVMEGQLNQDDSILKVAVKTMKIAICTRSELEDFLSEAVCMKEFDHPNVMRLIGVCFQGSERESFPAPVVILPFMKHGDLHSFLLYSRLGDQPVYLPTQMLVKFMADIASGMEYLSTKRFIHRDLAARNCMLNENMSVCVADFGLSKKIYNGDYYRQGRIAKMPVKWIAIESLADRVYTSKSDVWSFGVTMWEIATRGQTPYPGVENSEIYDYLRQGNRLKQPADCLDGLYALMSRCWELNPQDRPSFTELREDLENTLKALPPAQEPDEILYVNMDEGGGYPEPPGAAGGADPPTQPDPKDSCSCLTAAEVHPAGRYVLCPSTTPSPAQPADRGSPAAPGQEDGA
Test: AXL (human catalytic domain) Enzyme Activity Assay (IMAP fluorescence polarisation)
Assay type: biochemical
Description: Biological Methods AXL (human catalytic domain) Enzyme Activity Assay Reagents
Kinase Assay Reaction Buffer: This consisted of 20 mM HEPES pH 7.0, 10 mM MgCl2, 1 mM DTT, […], 0.01% Triton X100 (v/v), and 0.01% BSA (w/v). All buffer components were purchased from Sigma-Aldrich at reagent grade or higher.
Kinase: Recombinant AXL isoform 1 (aa473-894 corresponding to Genbank Accession Number NP 068713) at 2 mg/mL (20.8 μM) was purchased from Upstate Ltd. (Product code 14-512, lot #28164U). The enzyme was stored at −80° C. and a working stock was prepared to a concentration of 30 nM by diluting 20.8 μM stock 1:693 in cold (4° C.) 1× Reaction Buffer. Final enzyme concentration in the assay was 15 nM.
Substrate: Fluorescein labelled CSK-tide 5FAM-[…]-NH2 was obtained from Molecular Devices (Product code R7270) and used at a working concentration of 200 nM by diluting the 100 μM stock 1:500 in 1× Reaction Buffer in a mix with the enzyme. A negative control (lacking enzyme) was prepared at the same concentrations. Final substrate concentration in the assay was 100 nM.
ATP: Supplied by Sigma (product code A-7699). A 100 mM ATP stock was prepared in […] and used at a working concentration of 375 μM by diluting the 100 mM stock 1:266.6 in Reaction Buffer. Final ATP concentration in the assay was 150 μM; this concentration represents the KM.ATP for this enzyme calculated in this assay.
IMAP Reagents: IMAP screening express kit was obtained from Molecular Devices (product code R8127). The binding reagent was gently re-suspended before diluting by 1:1000 in buffer (Binding Buffer is supplied as a 5× stock and so was diluted with water prior to use—this assay used 40% buffer A and 60% buffer B) and then vortexed before addition to wells. The binding reagent was used at a final dilution of 1:1333.
1 μL samples of test compounds in 10% DMSO/water were added to “test” wells by dry-spotting using a Matrix Platemate Plus. 5 μL Kinase/Substrate in Reaction Buffer were added to columns 1-22 of a Corning black low binding 384 well #6754 (90 μL volume) microplate to give 12 nM and 100 nM reaction concentration respectively. 5 μL substrate in Reaction Buffer was added to columns 23 and 24 to give 100 nM reaction concentration. 4 μL ATP in Reaction Buffer was added to all wells to give 150 μM reaction concentration. The reaction mixture was then incubated at room temperature for 60 minutes. The incubation period was followed by the addition of 20 μL IMAP Binding Reagent in Binding Buffer to all wells. The IMAP reaction detection was further incubated at room temperature overnight. The FP on a Tecan Ultra Plate reader was recorded as a single read at Ex485 Em535.
Percentage inhibition was calculated based on activity of the test sample minus the average values in the blank wells relative to the average values measured in control wells minus the average values in the blank wells.
IC50 values were calculated from 10 point dose sigmoid ‘dose-response’ curves using XIfit software (IDBS Inc, USA). Data were fitted to a 4 parameter logistic model/sigmoidal dose response defined by the following equation:
[formula] where: • A=fit minimum (locked to 0); • B=fit maximum (locked to 100); • C=fit midpoint (pre-fit to 1); and • D=slope at linear portion of curve, hillslope (pre-fit to 0.1).
The value for C represents the IC50 of the test compound.

[1] = first data set, recombinant AXL isoform 1 aa473-894, 150 μM ATP
[2] = further data set (WW-001 through WW-169, XX-001 through XX-469, YY-001 through YY-016, ZZ-001 through ZZ-003), 150 μM ATP

pIC50 [1]	pIC50 [2]	Structure (SMILES)
> 6.00	6.00 to 7.00	CNCCOc1cccc(Nc2nc3cccc(-c4ccc5c(c4)OCO5)n3n2)c1 [XX-088]
	≥ 7.00	c1cc(-c2cn[nH]c2)cc(-c2cccc3nc(Nc4ccc(OCCN5CCCC5)cc4)nn23)c1 [XX-167]
5.00 to 6.00	5.00 to 6.00	NC(=O)c1ccc(-c2cccc3nc(NC(=O)C4CC4)nn23)cc1 [WW-019]
	≥ 7.00	CC(CN)Oc1ccc(Nc2nc3cccc(-c4ccc5c(c4)OCCO5)n3n2)cc1 (stereo not shown) [XX-118]
	≥ 7.00	CC(C)CCn1cc(-c2cccc3nc(Nc4ccc(OCCN5CCCC5)cc4)nn23)cn1 [XX-353]
	5.00 to 6.00	CCOC(=O)c1cccc(-c2cccc3nc(Nc4ccc(OCCN5CCCC5)cc4)nn23)c1 [XX-089]
5.00 to 6.00	5.00 to 6.00	O=C(Nc1nc2cccc(-c3ccccc3F)n2n1)C1CC1 [WW-025]
	≥ 7.00	CCCn1cc(-c2cccc3nc(Nc4ccc(OCCN5CCCC5)cc4)nn23)cn1 [XX-318]
5.00 to 6.00	5.00 to 6.00	COc1cc(-c2cccc3nc(NC(=O)C4CC4)nn23)ccc1O [WW-093]
	6.00 to 7.00	Cc1nn(C)c(C)c1-c1cccc(-c2cccc3nc(Nc4ccc(OCCN5CCCC5)cc4)nn23)c1 [XX-170]
	6.00 to 7.00	Cn1cncc1CNc1cccc(-c2cccc3nc(Nc4ccc(OCCN5CCCC5)cc4)nn23)c1 [XX-259]
	6.00 to 7.00	O=C(Nc1cccc(-c2cccc3nc(Nc4ccc(OCCN5CCCC5)cc4)nn23)c1)c1ccc2nonc2c1 [XX-182]
	6.00 to 7.00	CN(C)c1ccc(-c2cccc3nc(Nc4ccc(OCCN5CCCC5)cc4)nn23)cn1 [XX-198]
	6.00 to 7.00	O=S(=O)(c1cccc(Cl)c1)n1cc(-c2cccc3nc(Nc4ccc(OCCN5CCCC5)cc4)nn23)cn1 [XX-285]
	6.00 to 7.00	O=C(CCN1CCCCC1)Nc1ccc(Nc2nc3cccc(-c4ccc5c(c4)OCCO5)n3n2)cc1 [XX-123]
> 6.00	≥ 7.00	c1cc(-c2ccc3occc3c2)n2nc(Nc3ccc(OCCN4CCCCC4)cc3)nc2c1 [XX-050]
	6.00 to 7.00	Clc1cc(Cl)cc(-c2cccc3nc(Nc4ccc(OCCN5CCCC5)cc4)nn23)c1 [XX-298]
	≥ 7.00	CCC(C)S(=O)(=O)n1cc(-c2cccc3nc(Nc4ccc(OCCN5CCCC5)cc4)nn23)cn1 (stereo not shown) [XX-383]
	5.00 to 6.00	O=C(Cc1cccc(Cl)c1)Nc1cccc(-c2cccc3nc(Nc4ccc(OCCN5CCCC5)cc4)nn23)c1 [XX-227, 2-(3-Chloro-phenyl)-N-(3-{2-[4-(2-pyrrolidin-1-yl-ethoxy)-phenylamino]-[1,2,4]triazolo[1,5-a]pyridin-5-yl}-phenyl)-acetamide]
	6.00 to 7.00	O=C(Nc1cccc(-c2cccc3nc(Nc4ccc(OCCN5CCCC5)cc4)nn23)c1)c1cccc(Cl)c1 [XX-177]
5.00 to 6.00	5.00 to 6.00	CN1CCN(c2ccc(-c3cccc4nc(NC(=O)C5CC5)nn34)cc2)CC1 [WW-003, Cyclopropanecarboxylic acid {5-[4-(4-methyl-piperazin-1-yl)-phenyl]-[1,2,4]triazolo [1,5-a]pyridin-2-yl}-amide]
> 6.00	6.00 to 7.00	O=C(Nc1nc2cccc(-c3ccc(O)c(F)c3)n2n1)C1CC1 [WW-096]
> 6.00	6.00 to 7.00	Cn1ccc2cc(-c3cccc4nc(NC(=O)C5CC5)nn34)ccc21 [WW-066]
	6.00 to 7.00	Cc1ccccc1CNc1cccc(-c2cccc3nc(Nc4ccc(OCCN5CCCC5)cc4)nn23)c1 [XX-454]

pIC50 [1]	pIC50 [2]	Structure (SMILES)
	6.00 to 7.00	OCc1ccc(-c2cccc3nc(Nc4ccc(OCCN5CCCC5)cc4)nn23)cc1 [XX-237]
> 6.00		CNCCCOc1ccc(Nc2nc3cccc(-c4ccc(OC)cc4)n3n2)cc1 [XX-040]
	6.00 to 7.00	O=C(CN1CCCCC1)Nc1cccc(Nc2nc3cccc(-c4ccc5c(c4)OCCO5)n3n2)c1 [XX-121]
5.00 to 6.00	5.00 to 6.00	O=C(Nc1nc2cccc(NCc3ccccn3)n2n1)C1CC1 [WW-075, Cyclopropanecarboxylic acid {5-[(pyridin-2-ylmethyl)-amino]-[1,2,4]triazolo[1,5-a]pyridin-2-yl}-amide]
5.00 to 6.00	5.00 to 6.00	Cc1cc(-c2cccc3nc(NC(=O)C4CC4)nn23)cc(C)c1O [WW-008, Cyclopropanecarboxylic acid [5-(4-hydroxy-3,5-dimethyl-phenyl)-[1,2,4]triazolo[1,5-a]pyridin-2-yl]-amide]
> 6.00	≥ 7.00	COc1ccc(-c2cccc3nc(Nc4ccc(N5CCNCC5)cc4)nn23)cc1 [XX-023, [5-(4-Methoxy-phenyl)-[1,2,4]triazolo[1,5-a]pyridin-2-yl]-(4-piperazin-1-yl-phenyl)-amine]
5.00 to 6.00	5.00 to 6.00	O=C(Nc1nc2cccc(-c3ccco3)n2n1)C1CC1 [WW-061]
	≥ 7.00	Cn1nccc1CNc1cccc(-c2cccc3nc(Nc4ccc(OCCN5CCCC5)cc4)nn23)c1 [XX-396]
	6.00 to 7.00	COc1c(C)cc(-c2cccc3nc(Nc4ccc(OCCN5CCCC5)cc4)nn23)cc1C [XX-207]
5.00 to 6.00	5.00 to 6.00	O=C(Nc1nc2cccc(NCCc3c[nH]c4ccccc34)n2n1)C1CC1 [WW-077]
5.00 to 6.00	5.00 to 6.00	O=C(Nc1nc2cccc(-c3ccoc3)n2n1)C1CC1 [WW-056, Cyclopropanecarboxylic acid (5-furan-3-yl [1,2,4]triazolo[1,5-a]pyridin-2-yl)-amide]
	6.00 to 7.00	Cc1nc(CNc2cccc(-c3cccc4nc(Nc5ccc(OCCN6CCCC6)cc5)nn34)c2)c(C)o1 [XX-397]
> 6.00	6.00 to 7.00	CNCCOc1ccc(Nc2nc3cccc(-c4ccc(OC)cc4)n3n2)cc1 [XX-022]
	6.00 to 7.00	C[C@@H](CN)Oc1ccc(Nc2nc3cccc(-c4ccc5c(c4)OCCO5)n3n2)cc1 [XX-141]
	6.00 to 7.00	c1ccc(Oc2ccc(-c3cccc4nc(Nc5ccc(OCCN6CCCC6)cc5)nn34)cc2)cc1 [XX-247]
	6.00 to 7.00	COc1cc(Nc2nc3cccc(-c4ccc5c(c4)OCCO5)n3n2)ccc1OCCN(C)C [XX-112]
> 6.00	6.00 to 7.00	CNCCOc1ccc(Nc2nc3cccc(-c4ccc5c(c4)OCO5)n3n2)cc1 [XX-049]
	5.00 to 6.00	Nc1nnc(SCCn2cc(-c3cccc4nc(Nc5ccc(OCCN6CCCC6)cc5)nn34)cn2)[nH]1 [XX-327, (5-{1-[2-(5-Amino-4H-[1,2,4]triazol-3-ylsulfanyl)-ethyl]-1H-pyrazol-4-yl}-[1,2,4]triazolo[1,5-a]pyridin-2-yl)-[4-(2-pyrrolidin-1-yl-ethoxy)-phenyl]-amine]
	6.00 to 7.00	COc1ccc(-c2cccc3nc(Nc4cccc(C(C)=O)c4)nn23)cc1 [XX-008]
	6.00 to 7.00	Cn1cnnc1SCCn1cc(-c2cccc3nc(Nc4ccc(OCCN5CCCC5)cc4)nn23)cn1 [XX-429]
	6.00 to 7.00	CCCCCn1cc(-c2cccc3nc(Nc4ccc(OCCN5CCCC5)cc4)nn23)cn1 [XX-343]
	6.00 to 7.00	C#CCOc1ccc(-c2cccc3nc(Nc4ccc(OCCN5CCCC5)cc4)nn23)cc1 [XX-148]
> 6.00	≥ 7.00	CN(C)C/C=C/c1cccc(Nc2nc3cccc(-c4ccc5c(c4)OCCO5)n3n2)c1 [XX-083]
